Laboratory results as given in US6638943B2 (The University of Tennessee Research Foundation, priority 2001, dated 2003).
Like-named read-outs stand apart in the source and are kept apart here.

Assays:
human α1a-AR = target: T1, human α1a-AR (Homo sapiens, UniProt P35348); test: [3H]prazosin equilibrium competition binding, human α1a-AR expressed in HEK cells
T1 construct: expressed in transfected cells; host or cells: HEK cells
T1 sequence (P35348 1-466): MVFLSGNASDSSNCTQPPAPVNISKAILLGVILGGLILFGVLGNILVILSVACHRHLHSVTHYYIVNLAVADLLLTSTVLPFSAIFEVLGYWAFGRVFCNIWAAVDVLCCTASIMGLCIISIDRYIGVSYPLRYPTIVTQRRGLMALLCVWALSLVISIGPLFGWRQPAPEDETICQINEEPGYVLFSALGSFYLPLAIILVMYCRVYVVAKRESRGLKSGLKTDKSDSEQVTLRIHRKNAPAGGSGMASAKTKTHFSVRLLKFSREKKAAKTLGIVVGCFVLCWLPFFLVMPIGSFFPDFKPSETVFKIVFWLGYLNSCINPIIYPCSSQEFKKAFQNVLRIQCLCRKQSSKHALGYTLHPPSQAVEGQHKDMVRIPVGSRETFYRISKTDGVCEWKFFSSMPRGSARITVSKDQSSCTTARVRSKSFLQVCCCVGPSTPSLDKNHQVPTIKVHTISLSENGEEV

human α2c-AR [1] = target: T2, human α2c-AR (Homo sapiens, UniProt P18825); test: [3H]Rauwolscine equilibrium competition binding, human α2c-AR expressed in CHO cells; details: for binding affinity for α2c-AR greater than on the α1-AR subtypes: from Table 3
T2 construct: expressed in transfected cells
T2 sequence (P18825 1-462): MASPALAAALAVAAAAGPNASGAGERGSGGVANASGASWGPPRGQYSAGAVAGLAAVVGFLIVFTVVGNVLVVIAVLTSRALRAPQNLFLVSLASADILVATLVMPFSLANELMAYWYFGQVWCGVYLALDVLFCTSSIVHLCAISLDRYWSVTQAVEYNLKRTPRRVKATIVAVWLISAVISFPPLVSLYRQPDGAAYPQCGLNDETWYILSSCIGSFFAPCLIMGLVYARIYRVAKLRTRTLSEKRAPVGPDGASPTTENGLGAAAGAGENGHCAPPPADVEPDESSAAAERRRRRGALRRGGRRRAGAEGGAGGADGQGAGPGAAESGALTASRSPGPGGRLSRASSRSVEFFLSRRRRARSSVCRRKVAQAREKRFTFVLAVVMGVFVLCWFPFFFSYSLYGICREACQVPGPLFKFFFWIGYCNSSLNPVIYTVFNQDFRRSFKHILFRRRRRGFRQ

human α1d-AR = target: T3, human α1d-AR (Homo sapiens, UniProt P25100); test: [3H]prazosin equilibrium competition binding, human α1d-AR expressed in HEK cells
T3 construct: expressed in transfected cells; host or cells: HEK cells
T3 sequence (P25100 1-572): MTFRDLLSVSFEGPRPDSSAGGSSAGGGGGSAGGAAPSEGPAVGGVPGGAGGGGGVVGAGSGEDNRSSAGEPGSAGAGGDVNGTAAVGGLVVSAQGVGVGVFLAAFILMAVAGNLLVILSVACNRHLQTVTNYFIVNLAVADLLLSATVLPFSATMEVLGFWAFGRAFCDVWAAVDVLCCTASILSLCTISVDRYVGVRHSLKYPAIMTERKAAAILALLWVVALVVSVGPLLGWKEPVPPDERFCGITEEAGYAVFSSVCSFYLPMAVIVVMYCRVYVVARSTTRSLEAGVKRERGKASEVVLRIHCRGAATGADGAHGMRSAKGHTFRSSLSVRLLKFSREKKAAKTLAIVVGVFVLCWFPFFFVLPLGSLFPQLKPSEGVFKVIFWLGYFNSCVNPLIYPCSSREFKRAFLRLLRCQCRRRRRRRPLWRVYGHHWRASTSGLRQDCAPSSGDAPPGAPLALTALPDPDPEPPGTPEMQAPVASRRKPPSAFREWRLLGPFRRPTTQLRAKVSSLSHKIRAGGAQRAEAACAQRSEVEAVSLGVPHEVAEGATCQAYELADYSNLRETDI

human α2a-AR [2] = target: T4, human α2a-AR (Homo sapiens, UniProt P08913); test: [3H]Rauwolscine equilibrium competition binding, human α2a-AR expressed in CHO cells; details: human α2a-AR in CHO cells
T4 construct: expressed in transfected cells
T4 sequence (P08913 1-465): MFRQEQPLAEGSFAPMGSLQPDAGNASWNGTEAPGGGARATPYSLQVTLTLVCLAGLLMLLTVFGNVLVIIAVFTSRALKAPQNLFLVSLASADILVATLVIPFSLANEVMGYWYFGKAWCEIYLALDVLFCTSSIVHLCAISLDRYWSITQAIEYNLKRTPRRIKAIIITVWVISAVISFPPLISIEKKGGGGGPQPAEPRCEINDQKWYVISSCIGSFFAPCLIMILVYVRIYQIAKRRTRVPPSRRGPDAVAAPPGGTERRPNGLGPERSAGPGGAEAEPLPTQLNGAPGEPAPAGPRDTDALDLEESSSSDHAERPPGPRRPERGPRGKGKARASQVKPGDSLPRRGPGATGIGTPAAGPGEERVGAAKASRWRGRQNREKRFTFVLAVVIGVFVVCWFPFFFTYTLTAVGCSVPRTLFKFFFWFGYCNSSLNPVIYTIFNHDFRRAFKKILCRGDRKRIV

human α2b-AR = target: T5, human α2b-AR (Homo sapiens, UniProt P18089); test: [3H]Rauwolscine equilibrium competition binding, human α2b-AR expressed in CHO cells
T5 construct: expressed in transfected cells
T5 sequence (P18089 1-450): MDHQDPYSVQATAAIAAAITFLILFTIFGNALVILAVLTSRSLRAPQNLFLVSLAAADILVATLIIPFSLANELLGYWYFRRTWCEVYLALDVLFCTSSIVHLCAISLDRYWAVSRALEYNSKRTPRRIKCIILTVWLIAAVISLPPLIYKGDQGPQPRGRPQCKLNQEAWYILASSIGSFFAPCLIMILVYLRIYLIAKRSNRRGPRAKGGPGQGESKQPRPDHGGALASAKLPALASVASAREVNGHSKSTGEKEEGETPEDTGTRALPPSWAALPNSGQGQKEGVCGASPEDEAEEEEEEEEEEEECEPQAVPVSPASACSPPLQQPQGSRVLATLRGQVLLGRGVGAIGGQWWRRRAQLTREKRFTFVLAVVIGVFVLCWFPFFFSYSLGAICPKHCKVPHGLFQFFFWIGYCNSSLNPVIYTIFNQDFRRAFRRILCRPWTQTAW

human α2a-AR [3] = target: T4, human α2a-AR; test: Reversal of medetomidine mediated inhibition of forskolin-induced cAMP (6 CRE-LUC reporter), CHO cells expressing α2a-AR; type: cell-based; details: reversal of medetomidine (10 nM) effect on forskolin (5 μM) cAMP response; mean ± SEM of n=3-4; read-out: Effective Concentration-50 (nM ± SEM) α2a-AR
Experimental: (§1) The changes in cAMP levels were assessed by luciferase activities using a 6 CRE-LUC reporter gene bioassay.

human α2c-AR [4] = target: T2, human α2c-AR; test: Reversal of medetomidine mediated inhibition of forskolin-induced cAMP (6 CRE-LUC reporter), CHO cells expressing α2c-AR; type: cell-based
Experimental: as §1

human α1b-AR = target: T6, human α1b-AR (Homo sapiens, UniProt P35368); test: [3H]prazosin equilibrium competition binding, human α1b-AR expressed in HEK cells
T6 construct: expressed in transfected cells; host or cells: HEK cells
T6 sequence (P35368 1-520): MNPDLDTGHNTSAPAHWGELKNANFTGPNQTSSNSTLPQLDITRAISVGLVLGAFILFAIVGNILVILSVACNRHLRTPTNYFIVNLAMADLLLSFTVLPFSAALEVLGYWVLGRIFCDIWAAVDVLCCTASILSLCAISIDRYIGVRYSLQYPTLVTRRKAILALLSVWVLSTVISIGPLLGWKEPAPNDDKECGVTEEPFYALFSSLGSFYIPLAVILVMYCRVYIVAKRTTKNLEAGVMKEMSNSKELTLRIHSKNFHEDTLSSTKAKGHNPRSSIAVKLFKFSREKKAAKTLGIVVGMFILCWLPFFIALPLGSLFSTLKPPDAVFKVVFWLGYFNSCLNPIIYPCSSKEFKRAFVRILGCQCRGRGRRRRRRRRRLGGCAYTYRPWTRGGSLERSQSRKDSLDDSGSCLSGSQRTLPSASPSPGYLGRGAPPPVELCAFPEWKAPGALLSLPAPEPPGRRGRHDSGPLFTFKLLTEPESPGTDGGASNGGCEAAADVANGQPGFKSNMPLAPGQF

[5] = system: cremaster muscle arterioles (A3-A4 resistance vessels); test: Intravital microscopy of mouse cremaster muscle arterioles; type: in vivo, male C57-BL mice; details: 37° C., systemic administration via femoral vein, n=6
Experimental: Male C57-BL mice age 7-8 weeks and weighing approximately 20 g were used for the study. Prior to surgery animals were anesthetized with an i.m. injection of […] of Ketaset (87 mg ketamine/mL+13 mg xylazine/mL). Body temperature was maintained at ˜37° C. by convective heating. The animal was supinated and a midline incision was made in the ventro-cervical region and the underlying tissues bisected laterally to expose the trachea. A tracheotomy was performed and the animal intubated directly with PE50 tubing to facilitate ventilation, and the wound closed. The left rear limb was incised to expose the femoral neurovascular bundle, and the femoral vein isolated and catheterized with PE10 tubing attached to a syringe of normal saline. […]. […]
All experiments were carried out using an industrial grade microscope (Nikon MM-11) with two light sources, bright field (Opti-Quip 75 W xenon) and fluorescent (Nikon 150 W mercury). […] Experiments are viewed on a video monitor and recorded on digital tapes for off-line processing. The video images are analyzed off-line using the MetaMorph software (Universal Imaging Co.) on a Dell Optiplex GX-1. […]
The prepared animal was placed on the stage of the microscope on either the surgery board with the translumination window or on a stereotaxic frame. […] The blood pressure was monitored with a Kent Scientific XBP-1000 unit.

Compound: O=C(NCCCNC(=O)[C@@H]1[C@H]2C[C@H]3c4[nH]c5ccccc5c4CCN3C[C@@H]2CC[C@@H]1O)[C@@H]1[C@H]2C[C@H]3c4[nH]c5ccccc5c4CCN3C[C@@H]2CC[C@@H]1O [Compound 3b]
- Ki (human α1a-AR): 17000 nM
- Ki (human α2c-AR [1]): 5.75 nM
- pKi α2c-AR (human α2c-AR [1]; Table 3, CHO cells, [3H]rauwolscine, mean ± SEM of n = 4-6): 8.24 ± 0.07
- binding affinity for α2c-AR greater than on the α1-AR subtypes (human α2c-AR [1]): ≥ 1000 fold
- Ki (human α1d-AR): 7760 nM
- Ki (human α2a-AR [2]; Table 2, mean ± SEM of n = 4-6, read-out: pKi α2a-AR (converted)): 182 nM
- Ki (human α2a-AR [2]; [3H]rauwolscine 2.54 nM, mean ± SEM of four to nine experiments, read-out: Ki = SEM (nM) α2a-AR): 52 ± 3.2 nM
- Ki (human α2b-AR; Table 2, mean ± SEM of n = 4-6, read-out: pKi α2b-AR (converted)): 2040 nM
- Ki (human α2b-AR; [3H]rauwolscine 2.54 nM, mean ± SEM of four to nine experiments, read-out: Ki = SEM (nM) α2b-AR): 990 ± 85.2 nM
- EC50 (human α2a-AR [3]): 660 ± 210 nM
- EC50 (human α2c-AR [4]): 15.8 ± 5.2 nM
- more potent at inhibiting the action of medetomidine on α2c-AR versus α2a-AR (human α2c-AR [4]; from Table 4): 42 fold
- Ki (human α1b-AR): 5750 nM

Compound: COC(=O)[C@@H]1[C@H]2C[C@H]3c4[nH]c5ccccc5c4CCN3C[C@@H]2CC[C@@H]1O [Yohimbine, reference compound]
- binding affinity for α2c-AR greater than on the α1-AR subtypes (human α2c-AR [1]): at least 4400 fold
- increase in vessel diameter [5]: 22.14±1.08%
